Structures are written as SMILES. Where “and” joins values, the source holds several entries; their conditions need not be identical. Equal values may be shown once.

Data set [1] concerns PFSK (primitive neuroectodermal tumors/PNET). The data set is described as follows: In vivo antitumoral activity, PFSK primitive neuroectodermal tumor (PNET) xenograft. Further details: species or system nude athymic mice (human tumor xenograft). The conditions noted are these: 30 mg/kg i.v., q4dx4. How it is done:
(§1) Exponentially growing tumor cells were injected s.c. into nude athymic mice. The number of tumor cells was previously chosen by a growth curve. […] Animals were housed under a light-dark cycle, keeping temperature and humidity constant. Parameters of the animal rooms were assessed as follows: 22±2° C. temperature, 55±10% relative humidity, about 15-20 filtered air changes/hour and 12 hour circadian cycle of artificial light (7 a.m., 7 p.m.). At request, the environmental conditions were monitored and the data are retained in Animal Housing Archives. Drinking water was supplied ad libitum. Each mouse was offered daily a complete pellet diet (GLP 4RF21, Mucedola) throughout the study. The analytical certificates of animal food and water are retained at Sigma-Tau premises. All animals were weighed before starting the experiment and were subdivided into the different dosage groups.
(§2) Tumor growth was followed by biweekly measurements of tumor diameters with a Vernier caliper. Tumor volume (TV, mm^3) was calculated as: [length (mm)×width (mm)^2]/2, where the width and the length are the shortest and the longest diameters of each tumor, respectively.
(§3) The efficacy of the drug treatment was assessed as tumor volume inhibition (TVI %) in treated versus control mice, calculated as: 100−[(mean tumor volume of treated animals/mean tumor volume of control animals)×100].

Data set [2] concerns TE-671 (rhabdomyosarcoma). The data set is described as follows: In vivo antitumoral activity, TE-671 rhabdomyosarcoma xenograft. Also noted: species or system nude athymic mice (human tumor xenograft). The note with it: 30 mg/kg i.v., q4dx4. As to the method: as §1, §2, §3
The next data set deals with SK-N-AS (neuroblastoma). The data set is described as follows: In vivo antitumoral activity, SK-N-AS neuroblastoma xenograft. Further details: species or system nude athymic mice (human tumor xenograft). The conditions noted are these: SK-N-AS xenograft s.c. in nude mice; 30 mg/kg i.v., q4dx4. How it is done: as §1, §2, §3
Data set [3] is described as follows: Toxicity of the drug treatments in tumor-bearing mice. Type of data set: in vivo, nude athymic mice. The note with it: treatment i.v., q4dx4. How it is done:
(§4) The antitumor effect was evaluated against different human pediatric tumor models: SK-ND-AS (neuroblastoma); PSFK (primitive neuroectodermal tumors/PNET); TE-671 (rhabdomyosarcoma). ST 1968 was evaluated in comparison to CPT-11 (irinotecan) by intravenously delivery of 30 mg/10 ml/kg for ST1968 and 50 mg/10 ml/kg for CPT-11 according to the schedule q4dx4.
(§5) Exponentially growing tumor cells were injected s.c. into nude athymic mice. The number of tumor cells was previously chosen by a growth curve. Mice were housed inside cages of makrolon (33.2×15×13 cm) with stainless steel cover-feed and sterilized and dust-free bedding cobs. Animals were housed under a light-dark cycle, keeping temperature and humidity constant. Parameters of the animal rooms were assessed as follows: 22±2° C. temperature, 55±10% relative humidity, about 15-20 filtered air changes/hour and 12 hour circadian cycle of artificial light (7 a.m., 7 p.m.). At request, the environmental conditions were monitored and the data are retained in Animal Housing Archives. Drinking water was supplied ad libitum. […]
The toxicity of the drug treatments was determined as: body weight loss percent (% BWL max)=100−(mean BWday x/mean BWday 1×100), where BWx is the mean BW at the day of maximal loss during the treatment and BW1 is the mean BW on the 1st day of treatment.

The test system of data set [4] is human pediatric tumor xenograft models. The data set is described as follows: In vivo antitumoral activity on different pediatric tumor xenograft models (overall). Further details: species or system nude athymic mice (human tumor xenograft). The conditions noted are these: all models, compared with CPT-11; 30 mg/kg i.v., q4dx4. As to the method: as §4, §5
Tumor growth was followed by biweekly measurements of tumor diameters with a Vernier caliper. Tumor volume (TV, mm^3) was calculated as: [length (mm)×width (mm)^2]/2, where the width and the length are the shortest and the longest diameters of each tumor, respectively. […]

In the case of `CC[C@@]1(O)C(=O)OCc2c1cc1n(c2=O)Cc2c-1nc1ccccc1c2/C=N\OCCN` [ST1968, 7-(2-amino)ethoxyiminomethylcamptothecin], the “TVI % (tumor volume inhibition)” value in data set [1] (PFSK xenograft s.c. in nude mice, 30 mg/kg) is 99% and 100%; in data set [2] (TE-671 xenograft s.c. in nude mice, 30 mg/kg), 100% and 99%; in the data set on SK-N-AS (neuroblastoma) it was 98%. The “complete responses (in words)” value in data set [1] (PNET model) and in data set [2] (rhabdomyosarcoma model) was “high rate of complete responses” throughout. For the same molecule, the “tolerability / signs of acute or delayed toxicity (in words)” value in data set [3] is “generally well tolerated by mice with no signs of acute or delayed toxicity”. Moreover, in data set [4], the “antitumor activity / complete tumor regressions (in words)” value is recorded as “appreciable rate of complete tumor regressions in all models”.

Values taken from patent US8829021B2, “Treatment of pediatric tumors” (Sigma-Tau Industrie Farmaceutiche Riunite S.p.A., priority 2007, dated 2014).
